Source: ChEMBL document CHEMBL2401642, “Sphingosine kinase 2 inhibitor SG-12 induces apoptosis via phosphorylation by sphingosine kinase 2” (2013)
One block for each compound: values may come before it. Active and inactive are the calls of the source. The rule behind the calls is not given here.

What was measured:
[1] = biological target: Sphingosine kinase 1 (Mus musculus) (UniProt Q8CI15); assay: Activity at mouse SPHK1 transfected in mouse A20/2J cell lysates assessed as compound phosphorylation at 10 uM after 30 mins by autoradiography in presence of [gamma-32P]ATP; assay type: cell-free
Chain of Sphingosine kinase 1 (Mus musculus) (Q8CI15 whole entry): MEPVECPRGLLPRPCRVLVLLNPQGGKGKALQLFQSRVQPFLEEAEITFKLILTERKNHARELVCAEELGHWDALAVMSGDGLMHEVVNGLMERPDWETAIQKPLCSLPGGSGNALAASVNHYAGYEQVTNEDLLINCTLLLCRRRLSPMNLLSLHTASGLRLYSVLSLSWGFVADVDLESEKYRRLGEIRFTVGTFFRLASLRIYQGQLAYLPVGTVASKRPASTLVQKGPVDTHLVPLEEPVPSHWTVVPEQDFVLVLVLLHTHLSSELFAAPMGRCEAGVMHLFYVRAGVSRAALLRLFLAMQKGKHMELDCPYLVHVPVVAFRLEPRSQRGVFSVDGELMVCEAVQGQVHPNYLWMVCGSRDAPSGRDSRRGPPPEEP

[2] = biological target: T1, Sphingosine kinase 2 (Mus musculus) (UniProt Q9JIA7); assay: Activity at mouse SPHK2 transfected in mouse A20/2J cell lysates assessed as compound phosphorylation at 10 uM after 30 mins by autoradiography in presence of [gamma-32P]ATP; assay type: cell-free
T1 sequence (whole entry): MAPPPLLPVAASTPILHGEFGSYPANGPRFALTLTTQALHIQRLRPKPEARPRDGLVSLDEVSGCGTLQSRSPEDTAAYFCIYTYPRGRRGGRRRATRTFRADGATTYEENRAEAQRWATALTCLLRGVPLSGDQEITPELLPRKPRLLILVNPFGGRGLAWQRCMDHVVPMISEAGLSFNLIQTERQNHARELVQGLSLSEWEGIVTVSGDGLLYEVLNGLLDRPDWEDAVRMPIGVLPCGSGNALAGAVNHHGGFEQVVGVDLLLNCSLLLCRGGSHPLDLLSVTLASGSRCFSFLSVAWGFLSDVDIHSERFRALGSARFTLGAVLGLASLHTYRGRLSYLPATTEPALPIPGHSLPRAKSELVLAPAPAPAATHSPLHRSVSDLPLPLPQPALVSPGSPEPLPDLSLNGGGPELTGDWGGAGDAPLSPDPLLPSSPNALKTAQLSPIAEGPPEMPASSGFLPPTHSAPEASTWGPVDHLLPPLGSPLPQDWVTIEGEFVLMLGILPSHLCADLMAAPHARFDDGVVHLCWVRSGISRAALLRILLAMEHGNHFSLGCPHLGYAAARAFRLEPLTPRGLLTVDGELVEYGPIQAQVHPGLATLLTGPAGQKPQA

[3] = biological target: Sphingosine kinase 1 (Mus musculus) (UniProt Q8CI15); assay: Inhibition of mouse SPHK1 in mouse A20/2J cells using [3-3H]sphingosine as substrate assessed as [3H]S1P formation at 2 to 4 uM incubated for 5 mins prior to substrate addition measured after 5 mins; assay type: cell-based
[4] = biological target: T1, Sphingosine kinase 2 (Mus musculus); assay: Inhibition of mouse SPHK2 in mouse A20/2J cells using [3-3H]sphingosine as substrate assessed as [3H]S1P formation at 2 to 4 uM incubated for 5 mins prior to substrate addition measured after 5 mins; assay type: cell-based
[5] = Induction of apoptosis in mouse SPHK2-transfected mouse A20/2J cells assessed as early apoptotic cells at 8 uM after 6 hrs by FITC-annexin V/propidium iodide staining-based flow cytometric analysis (reference value: 2.48%); assay type: functional
[6] = Induction of apoptosis in mouse SPHK2-transfected mouse A20/2J cells assessed as viable cells at 8 uM after 6 hrs by FITC-annexin V/propidium iodide staining-based flow cytometric analysis (reference value: 96.1%); assay type: functional; conditions: read-out: Activity
[7] = Induction of apoptosis in mouse SPHK2-transfected mouse A20/2J cells assessed as late apoptotic cells at 8 uM after 6 hrs by FITC-annexin V/propidium iodide staining-based flow cytometric analysis (reference value: 1.12%); assay type: functional
[8] = Induction of apoptosis in mouse A20/2J cells assessed as early apoptotic cells at 8 uM after 6 hrs by FITC-annexin V/propidium iodide staining-based flow cytometric analysis (reference value: 2.58%); assay type: functional
[9] = Induction of apoptosis in mouse A20/2J cells assessed as viable cells at 8 uM after 6 hrs by FITC-annexin V/propidium iodide staining-based flow cytometric analysis (reference value: 95.9%); assay type: functional; conditions: read-out: Activity
A20/2J [10] = assay: Induction of apoptosis in mouse SPHK1-transfected mouse A20/2J cells assessed as increase in LDH release at 50 uM; assay type: functional, cell-based
A20/2J [11] = assay: Induction of apoptosis in mouse A20/2J cells assessed as increase in LDH release at 10 uM up to 10 hrs; assay type: functional, cell-based
A20/2J [12] = assay: Induction of apoptosis in mouse SPHK1-transfected mouse A20/2J cells assessed as increase in LDH release at 10 uM up to 10 hrs; assay type: functional, cell-based
[13] = Induction of apoptosis in mouse A20/2J cells assessed as activation of caspase 3 at 10 uM after 3 hrs by flow cytometric analysis; assay type: functional
[14] = Induction of apoptosis in mouse SPHK2-transfected mouse A20/2J cells assessed as activation of caspase 3 at 10 uM after 3 hrs by flow cytometric analysis; assay type: functional
A20/2J [15] = assay: Induction of apoptosis in mouse SPHK2-transfected mouse A20/2J cells assessed as chromatin condensation at 8 uM after 18 hrs by transmission electron microscopy; assay type: functional, cell-based
A20/2J [16] = assay: Induction of apoptosis in mouse SPHK2-transfected mouse A20/2J cells at 8 uM after 6 hrs by flow cytometric analysis in presence of pan-caspase inhibitor z-VAD-fmk; assay type: functional, cell-based
[17] = Induction of apoptosis in mouse N-terminal FLAG-tagged SPHK1-transfected mouse A20/2J cells at 10 uM after 9 hrs by LDH release assay; assay type: functional
[18] = Induction of apoptosis in mouse SPHK2 L219A mutant-transfected mouse A20/2J cells at 10 uM after 9 hrs by LDH release assay; assay type: functional
[19] = Induction of apoptosis in mouse SPHK2 G213D mutant-transfected mouse A20/2J cells at 10 uM after 9 hrs by LDH release assay; assay type: functional
[20] = Induction of apoptosis in mouse N-terminal FLAG-tagged SPHK2-transfected mouse A20/2J cells at 10 uM after 9 hrs by LDH release assay; assay type: functional
[21] = Induction of apoptosis in mouse SPHK2 R293E/R294E mutant-transfected mouse A20/2J cells at 10 uM after 9 hrs by LDH release assay; assay type: functional
A20/2J [22] = assay: Induction of apoptosis in mouse SPHK2-transfected mouse A20/2J cells assessed as increase in LDH release at 50 uM; assay type: functional, cell-based
A20/2J [23] = assay: Induction of apoptosis in mouse SPHK2-transfected mouse A20/2J cells assessed as increase in LDH release after 8 hrs; assay type: functional, cell-based
A20/2J [24] = assay: Induction of apoptosis in mouse SPHK2-transfected mouse A20/2J cells assessed as increase in LDH release at 10 uM after 6 hrs; assay type: functional, cell-based
A20/2J [25] = assay: Induction of apoptosis in mouse SPHK2-transfected mouse A20/2J cells assessed as increase in LDH release at 10 uM; assay type: functional, cell-based; conditions: TDE = time-dependent effect
[26] = Induction of apoptosis in mouse A20/2J cells assessed as late apoptotic cells at 8 uM after 6 hrs by FITC-annexin V/propidium iodide staining-based flow cytometric analysis (reference value: 1.39%); assay type: functional
[27] = biological target: Sphingosine kinase 1 (Mus musculus) (UniProt Q8CI15); assay: Inhibition of mouse SPHK1 in mouse A20/2J cells using [3-3H]sphingosine as substrate assessed as [3H]S1P formation at 8 uM incubated for 5 mins prior to substrate addition measured after 5 mins; assay type: cell-based
[28] = biological target: T1, Sphingosine kinase 2 (Mus musculus); assay: Inhibition of mouse SPHK2 in mouse A20/2J cells using [3-3H]sphingosine as substrate assessed as [3H]S1P formation at 8 uM incubated for 5 mins prior to substrate addition measured after 5 mins; assay type: cell-based
[29] = Induction of apoptosis in mouse SPHK1-transfected mouse A20/2J cells assessed as activation of caspase 3 at 10 uM after 3 hrs by flow cytometric analysis; assay type: functional

Activity [1]: Active
Activity [2]: Active
inhibition [3]: inactive
inhibition [4]: inactive
Compound: CCCCCCCCc1ccc(C[C@H](O)[C@@H](N)CO)cc1

Activity [1]: Active
Activity [2]: Active
inhibition [3]: Active
inhibition [4]: Active
inhibition [27]: 8%
inhibition [28]: 46%
Compound: CCCCCCCCc1ccc(C[C@@H](O)[C@@H](N)CO)cc1
Activity [5]: 7.86%
viability at 8 µM [6]: 70.1%
Activity [7]: 19%
Activity [8]: 5.06%
viability at 8 µM [9]: 93.2%
Activity (A20/2J [10]): Active
Activity (A20/2J [11]): Active
Activity (A20/2J [12]): Active
Activity [13]: 9.6%
Activity [14]: 31.8%
Activity (A20/2J [15]): Active
Activity (A20/2J [16]): Active
Activity [17]: 17.8%
Activity [18]: 20.3%
Activity [19]: 9.8%
Activity [20]: 18.4%
Activity [21]: 13.2%
Activity (A20/2J [22]): Active
Activity (A20/2J [23]): Dose-dependent effect
Activity (A20/2J [24]): Active
Activity (A20/2J [25]): tde
Activity [26]: 1.62%
Activity [29]: 6.4%
